Measurements taken from US20240190883A1, “KRAS PROTEIN DEGRADERS, PHARMACEUTICAL COMPOSITIONS THEREOF, AND THEIR THERAPEUTIC APPLICATIONS” (BioTheryX, Inc., priority 2021, published 2024).

Key:
Type in all cases: cell-based
H358 (G12C) cells = assay: Cell viability assay (CELLTITER-GLO), H358 cells; details: Homo sapiens, NCI-H358, 72 h, 3 days incubation, 2.5% fetal bovine serum, read-out: Inhibition of Cancerous Cells IC50 (μM) H358 (G12C)
Protocol: (§1) H358, H23, SW48, and AsPC-1 cells were cultured in RPMI 1640 media supplemented with 10% fetal bovine serum, streptomycin, and penicillin. Lovo and SW480 cells were cultured in DMEM media supplemented with 10% fetal bovine serum, streptomycin, and penicillin. The cell lines were plated in their respective medium supplemented with 2.5% fetal bovine serum, streptomycin, and penicillin. All cell lines were plated in white walled 96-well plates at 2,000 cells/well or 384-well plates at 500 cells/well, except Lovo, which were plated at 4,000 or 1,000 cells/well, respectively. The cells were incubated in DMSO (control) or a compound for 3 days at 37° C. under 5% C02. A CELLTITER-GLO® reagent (100 μL) was then added to each well. After a 10 min incubation with shaking, luminescence was measured using an ENVISION® multimode plate reader. IC50 values are summarized in Table 1 and percentages of inhibition are summarized in Table 2, where compound T1 is 2-(4-(2-methyl-3,5-diphenylpyrazolo[1,5-a]pyrimidin-7-yl)piperazin-1-yl)ethan-1-ol.

SW480 (G12V) cells = assay: Cell viability assay (CELLTITER-GLO), SW480 cells; details: Homo sapiens, 72 h, 3 days incubation, 2.5% fetal bovine serum, read-out: Inhibition of Cancerous Cells IC50 (μM) SW480 (G12V)
Protocol: as §1

SW48 (wt) cells = assay: Cell viability assay (CELLTITER-GLO), SW48 cells; details: Homo sapiens, 72 h, 3 days incubation, 2.5% fetal bovine serum, read-out: Inhibition of Cancerous Cells IC50 (μM) SW48 (wt)
Protocol: as §1

Lovo (G13D) cells = assay: Cell viability assay (CELLTITER-GLO), Lovo cells; details: Homo sapiens, 72 h, 3 days incubation, 2.5% fetal bovine serum, read-out: Inhibition of Cancerous Cells IC50 (μM) Lovo (G13D)
Protocol: as §1

AsPC-1 (G12D) cells = assay: Cell viability assay (CELLTITER-GLO), AsPC-1 cells; details: Homo sapiens, ASPC1, 72 h, 3 days incubation, 2.5% fetal bovine serum, read-out: Inhibition of Cancerous Cells IC50 (μM) AsPC-1 (G12D)
Protocol: as §1

| IC50 (H358 (G12C) cells) | IC50 (SW480 (G12V) cells) | IC50 (SW48 (wt) cells) | IC50 (Lovo (G13D) cells) | IC50 (AsPC-1 (G12D) cells) | Compound |
| --- | --- | --- | --- | --- | --- |
| 0.94 µM | 1.2 µM | 1.1 µM | 0.74 µM | – | Cc1nn2c(N3CCN(CCO)CC3)cc(-c3cccc(CCCN4CCN(C(=O)CNc5ccc(C6CCC(=O)NC6=O)cc5)CC4)c3)nc2c1-c1ccccc1 (stereo not shown) [Compound B1, 3-(4-((2-(4-(3-(3-(7-(4-(2-Hydroxyethyl)piperazin-1-yl)-2-methyl-3-phenyl-pyrazolo[1,5-a]pyrimidin-5-yl)phenyl)propyl)piperazin-1-yl)-2-oxoethyl)amino)phenyl)-piperidine-2,6-dione] |
| 0.71 µM | 0.39 µM | 0.49 µM | 0.4 µM | – | Cc1nn2c(N3CCN(CCO)CC3)cc(-c3cccc(CCCCCN4CCN(C(=O)CNc5ccc(C6CCC(=O)NC6=O)cc5)CC4)c3)nc2c1-c1ccccc1 (stereo not shown) [Compound B2, 3-(4-((2-(4-(5-(3-(7-(4-(2-hydroxyethyl)piperazin-1-yl)-2-methyl-3-phenylpyrazolo[1,5-a]pyrimidin-5-yl)phenyl)pentyl)piperazin-1-yl)-2-oxoethyl)amino)phenyl)piperidine-2,6-dione] |
| 1.1 µM | 1.3 µM | 1.4 µM | 1.1 µM | – | Cc1nn2c(N3CCN(CCO)CC3)cc(-c3cccc(CCCN4CCN(C(=O)CNc5cccc(C6CCC(=O)NC6=O)c5)CC4)c3)nc2c1-c1ccccc1 (stereo not shown) [Compound B4, 3-(3-((2-(4-(3-(3-(7-(4-(2-Hydroxyethyl)piperazin-1-yl)-2-methyl-3-phenyl-pyrazolo[1,5-a]pyrimidin-5-yl)phenyl)propyl)piperazin-1-yl)-2-oxoethyl)amino)phenyl)-piperidine-2,6-dione] |
| 1.1 µM | 0.45 µM | 0.7 µM | 0.73 µM | 0.91 µM | Cc1nn2c(N3CCN(CCO)CC3)cc(-c3ccccc3)nc2c1-c1cccc(CCCCCN2CCN(C(=O)COc3ccc(N4CCC(=O)NC4=O)cc3)CC2)c1 [Compound C7, 1-(4-(2-(4-(5-(3-(7-(4-(2-hydroxyethyl)piperazin-1-yl)-2-methyl-5-phenyl-pyrazolo[1,5-a]pyrimidin-3-yl)phenyl)pentyl)piperazin-1-yl)-2-oxoethoxy)phenyl)dihydro-pyrimidine-2,4(1H,3H)-dione] |
| 1.1 µM | 0.42 µM | 0.66 µM | 0.71 µM | 1.1 µM | Cc1nn2c(N3CCN(CCO)CC3)cc(-c3ccccc3)nc2c1-c1cccc(CCCCCCCN2CCN(C(=O)COc3ccc(N4CCC(=O)NC4=O)cc3)CC2)c1 [Compound C8, 1-(4-(2-(4-(7-(3-(7-(4-(2-Hydroxyethyl)piperazin-1-yl)-2-methyl-5-phenyl-pyrazolo[1,5-a]pyrimidin-3-yl)phenyl)heptyl)piperazin-1-yl)-2-oxoethoxy)phenyl)dihydro-pyrimidine-2,4(1H,3H)-dione] |
| 1.1 µM | 0.42 µM | 0.48 µM | 0.47 µM | 0.96 µM | Cc1nn2c(N3CCN(CCO)CC3)cc(-c3ccccc3)nc2c1-c1cccc(CCCCCCCCCN2CCN(C(=O)COc3ccc(N4CCC(=O)NC4=O)cc3)CC2)c1 [Compound C9, 1-(4-(2-(4-(9-(3-(7-(4-(2-hydroxyethyl)piperazin-1-yl)-2-methyl-5-phenyl-pyrazolo[1,5-a]pyrimidin-3-yl)phenyl)nonyl)piperazin-1-yl)-2-oxoethoxy)phenyl)dihydro-pyrimidine-2,4(1H,3H)-dione] |
| 1.2 µM | 0.53 µM | 1.1 µM | 0.89 µM | 1.2 µM | Cc1nn2c(N3CCN(CCO)CC3)cc(-c3ccccc3)nc2c1-c1cccc(CCCCCCCN2CCN(C(=O)COc3cccc(N4CCC(=O)NC4=O)c3)CC2)c1 [Compound C11, 1-(3-(2-(4-(7-(3-(7-(4-(2-Hydroxyethyl)piperazin-1-yl)-2-methyl-5-phenyl-pyrazolo[1,5-a]pyrindin-3-yl)phenyl)heptyl)piperazin-1-yl)-2-oxoethoxy)phenyl)dihydro-pyrimidine-2,4(1H,3H)-dione] |
| 1.4 µM | 0.45 µM | 0.73 µM | 0.63 µM | 1 µM | Cc1nn2c(N3CCN(CCO)CC3)cc(-c3ccccc3)nc2c1-c1cccc(CCCCCCCCCN2CCN(C(=O)COc3cccc(N4CCC(=O)NC4=O)c3)CC2)c1 [Compound C12, 1-(3-(2-(4-(9-(3-(7-(4-(2-hydroxyethyl)piperazin-1-yl)-2-methyl-5-phenyl-pyrazolo[1,5-a]pyrimidin-3-yl)phenyl)nonyl)piperazin-1-yl)-2-oxoethoxy)phenyl)dihydro-pyrimidine-2,4(1H,3H)-dione] |
| 0.82 µM | 0.45 µM | 0.52 µM | 0.32 µM | – | Cc1nn2c(N3CCN(CCO)CC3)cc(-c3cccc(CCCCCN4CCN(C(=O)CNc5ccc6c(C7CCC(=O)NC7=O)nn(C)c6c5)CC4)c3)nc2c1-c1ccccc1 (stereo not shown) [Compound D2, 3-(6-((2-(4-(5-(3-(7-(4-(2-hydroxyethyl)piperazin-1-yl)-2-methyl-3-phenylpyrazolo[1,5-a]pyrimidin-5-yl)phenyl)pentyl)piperazin-1-yl)-2-oxoethyl)amino)-1-methyl-1H-indazol-3-yl)piperidine-2,6-dione] |
| 0.75 µM | 0.84 µM | 0.94 µM | 0.52 µM | – | Cc1nn2c(N3CCN(CCO)CC3)cc(-c3cccc(CCCN4CCN(C(=O)CNc5cccc6c(C7CCC(=O)NC7=O)nn(C)c56)CC4)c3)nc2c1-c1ccccc1 (stereo not shown) [Compound D4, 3-(7-((2-(4-(3-(3-(7-(4-(2-Hydroxyethyl)piperazin-1-yl)-2-methyl-3-phenyl-pyrazolo[1,5-a]pyrimidin-5-yl)phenyl)propyl)piperazin-1-yl)-2-oxoethyl)amino)-1-methyl-1H-indazol-3-yl)piperidine-2,6-dione] |
| 3.3 µM | 0.86 µM | 1.2 µM | 1.3 µM | 1.3 µM | Cc1nn2c(N3CCN(CCO)CC3)cc(-c3ccccc3)nc2c1-c1cccc(CCCN2CCN(C(=O)CNc3ccc4c(C5CCC(=O)NC5=O)nn(C)c4c3)CC2)c1 (stereo not shown) [Compound D7, 3-(6-((2-(4-(3-(3-(7-(4-(2-Hydroxyethyl)piperazin-1-yl)-2-methyl-5-phenyl-pyrazolo[1,5-a]pyrimidin-3-yl)phenyl)propyl)piperazin-1-yl)-2-oxoethyl)amino)-1-methyl-1H-indazol-3-yl)piperidine-2,6-dione] |
| 1.2 µM | 0.4 µM | 0.72 µM | 0.63 µM | 1.3 µM | Cc1nn2c(N3CCN(CCO)CC3)cc(-c3ccccc3)nc2c1-c1cccc(CCCCCN2CCN(C(=O)CNc3ccc4c(C5CCC(=O)NC5=O)nn(C)c4c3)CC2)c1 (stereo not shown) [Compound D8, 3-(6-((2-(4-(5-(3-(7-(4-(2-Hydroxyethyl)piperazin-1-yl)-2-methyl-5-phenyl-pyrazolo[1,5-a]pyrimidin-3-yl)phenyl)pentyl)piperazin-1-yl)-2-oxoethyl)amino)-1-methyl-1H-indazol-3-yl)piperidine-2,6-dione] |
